This passage reports LD50 and response vs control in vivo results from patent US4760136A, “Chartreusin derivatives and salts thereof” (Ishihara Sangyo Kaisha, Ltd., priority 1984, dated 1988).

A short description of data set [1]: Acute toxicity, intravenous (once), ddY mice. Format: in vivo. The note with it: mouse, in vivo, iv, formulated per Preparation Example. The text has this:
In Table 7 are shown acute toxicity values (LD50, mg/kg) in ddY mice in the case of intravenously administering (once) each of the compounds of this invention in the form of preparations shown in the Preparation Examples shown in Table 7.

Data set [2] has as its system P-388 leukemia cells. In words: Antitumor activity: P-388 leukemia cells inoculated intraperitoneally, drug administered intravenously, BDF1 mice. It is filed as in vivo. To be noted: Mus musculus, P388, iv, BDF1 mice, P-388 i.p., read-out: T/C (%) of MST; for response vs control in vivo at 20 mg/kg: dose b: 20 mg/kg × 3, i.v. on days 1, 5 and 9; for response vs control in vivo at 40 mg/kg: dose c: 40 mg/kg × 3, i.v. on days 1, 5 and 9; for response vs control in vivo at 80 mg/kg: dose f: 80 mg/kg × 3, i.v. on days 1, 5 and 9. In outline:
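Drug dosing was intravenous on the first, fifth and ninth days after intraperitoneal inoculation of P-388 leukemia cells (1×10^6 per mouse) into BDF1 mice. Vehicles were physiological saline alone, or saline with small amounts of sodium carboxymethyl cellulose or Tween-80.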

Take `COC1C(O)C(C)OC(OC2C(Oc3cccc4c(OC(=O)COC(=O)CCCl)c5c(=O)oc6ccc(C)c7c(=O)oc(c34)c5c67)OC(C)C3OC(c4ccccc4)OC32)C1O` (centres unmarked) [Compound No. 149]: the LD50 in data set [1] is no less than 40 mg/kg. For the same compound, in data set [2], the response vs control in vivo at 20 mg/kg was found to be 203%.
In data set [1], `COC1C(O)C(C)OC(OC2C(Oc3cccc4c(OC(=O)CC[S+](C)[O-])c5c(=O)oc6ccc(C)c7c(=O)oc(c34)c5c67)OC(C)C3OC(c4ccccc4)OC32)C1O` (centres unmarked) [Compound No. 150] came in with an LD50 of no less than 40 mg/kg. In data set [2], the response vs control in vivo at 20 mg/kg stood at 200% and the response vs control in vivo at 40 mg/kg amounted to 205%.
As for `COC1C(O)C(C)OC(OC2C(Oc3cccc4c(OC(=O)C(C)OCc5ccccc5)c5c(=O)oc6ccc(C)c7c(=O)oc(c34)c5c67)OC(C)C3OC(c4ccccc4)OC32)C1O` (centres unmarked) [Compound No. 151], the LD50 in data set [1] is no less than 40 mg/kg. Further, in data set [2], the response vs control in vivo at 20 mg/kg came out at 155% and the response vs control in vivo at 40 mg/kg stood at 224%.
For the compound `COC1C(O)C(C)OC(OC2C(Oc3cccc4c(OC(=O)CCSC)c5c(=O)oc6ccc(C)c7c(=O)oc(c34)c5c67)OC(C)C3OC(c4ccccc4)OC32)C1O` (centres unmarked) [Compound No. 152], the LD50 in data set [1] was no less than 40 mg/kg. For the same compound, in data set [2], the response vs control in vivo at 20 mg/kg turned out to be 157% and the response vs control in vivo at 40 mg/kg is 210%.
The compound `COC1C(O)C(C)OC(OC2C(Oc3cccc4c(OC(=O)CCC(C)=O)c5c(=O)oc6ccc(C)c7c(=O)oc(c34)c5c67)OC(C)C3OC(c4ccccc4)OC32)C1O` (centres unmarked) [Compound No. 153] came in with an LD50 in data set [1] of no less than 40 mg/kg. Further, in data set [2], the response vs control in vivo at 20 mg/kg stood at 203% and the response vs control in vivo at 40 mg/kg was 243%.
The like results for `COC1C(O)C(C)OC(OC2C(Oc3cccc4c(OC(=O)CCc5ccccc5)c5c(=O)oc6ccc(C)c7c(=O)oc(c34)c5c67)OC(C)C3OC(c4ccccc4)OC32)C1O` (centres unmarked) [Compound No. 154] were, in that order, no less than 40 mg/kg, 205% and 214%.
The like results for `COC1C(O)C(C)OC(OC2C(Oc3cccc4c(OC(=O)C5CC5)c5c(=O)oc6ccc(C)c7c(=O)oc(c34)c5c67)OC(C)C3OC(c4ccsc4)OC32)C1O` (centres unmarked) [Compound No. 155] were, in that order, no less than 40 mg/kg, 171% and 183%.
In turn, `COC1C(O)C(C)OC(OC2C(Oc3cccc4c(OC(=O)CCC(C)=O)c5c(=O)oc6ccc(C)c7c(=O)oc(c34)c5c67)OC(C)C3OC(C)(C)OC32)C1O` (centres unmarked) [Compound No. 156] returned an LD50 in data set [1] of no less than 80 mg/kg. Besides, in data set [2], the response vs control in vivo at 40 mg/kg came out at 160% and the response vs control in vivo at 80 mg/kg worked out at 218%.
The compound `COC1C(O)C(C)OC(OC2C(Oc3cccc4c(OC(=O)CCCl)c5c(=O)oc6ccc(C)c7c(=O)oc(c34)c5c67)OC(C)C3OC(C)(C)OC32)C1O` (centres unmarked) [Compound No. 157] yielded an LD50 in data set [1] of no less than 80 mg/kg. For the same compound, in data set [2], the response vs control in vivo at 40 mg/kg worked out at 153% and the response vs control in vivo at 80 mg/kg amounted to 201%.
The like results for `COC1C(O)C(C)OC(OC2C(Oc3cccc4c(OC(=O)c5cccc(N(C)C)c5)c5c(=O)oc6ccc(C)c7c(=O)oc(c34)c5c67)OC(C)C3OC(c4cccc(F)c4)OC32)C1O` (centres unmarked) [Compound No. 158, 6-O-(m-Dimethylaminobenzoyl)-3',4'-O-(m-Fluorobenzylidene)-Chartreusin] were, in that order, no less than 80 mg/kg, 174% and 205%.
The matching figures for `COC1C(O)C(C)OC(OC2C(Oc3cccc4c(OC(=O)CC(C)C)c5c(=O)oc6ccc(C)c7c(=O)oc(c34)c5c67)OC(C)C3OC(c4ccc(F)cc4)OC32)C1O` (centres unmarked) [Compound No. 159]: no less than 40 mg/kg, 171% and 216%.
The matching figures for `C=CCCC(=O)Oc1c2cccc(OC3OC(C)C4OC(c5cccc([N+](=O)[O-])c5)OC4C3OC3OC(C)C(O)C(OC)C3O)c2c2oc(=O)c3c(C)ccc4oc(=O)c1c2c43` (centres unmarked) [Compound No. 160]: no less than 80 mg/kg, 160% and 218%.
`C/C=C(\C)C(=O)Oc1c2cccc(OC3OC(C)C4OC(c5cccc(C(F)(F)F)c5)OC4C3OC3OC(C)C(O)C(OC)C3O)c2c2oc(=O)c3c(C)ccc4oc(=O)c1c2c43` (stereo not drawn) [Compound No. 161, 6-O-(Trans-2-Methyl-2-Butenoyl)-3',4'-O-(m-Trifluoromethylbenzylidene)Chartreusin] returned an LD50 in data set [1] of no less than 80 mg/kg. For the same compound, in data set [2], the response vs control in vivo at 40 mg/kg was 169% and the response vs control in vivo at 80 mg/kg was 234%.
On to `COC1C(O)C(C)OC(OC2C(Oc3cccc4c(OC(=O)CCC(C)=O)c5c(=O)oc6ccc(C)c7c(=O)oc(c34)c5c67)OC(C)C3OC(c4cccc(C(F)(F)F)c4)OC32)C1O` (centres unmarked) [Compound No. 162], for which the LD50 in data set [1] is no less than 80 mg/kg. In addition, in data set [2], the response vs control in vivo at 40 mg/kg was found to be 157% and the response vs control in vivo at 80 mg/kg was 243%.
The like results for `COC1C(O)C(C)OC(OC2C(Oc3cccc4c(OC(=O)CC(C)C)c5c(=O)oc6ccc(C)c7c(=O)oc(c34)c5c67)OC(C)C3OC(c4cccc(Br)c4)OC32)C1O` (centres unmarked) [Compound No. 163] were, in that order, no less than 80 mg/kg, 156% and 227%.
The compound `COC1C(O)C(C)OC(OC2C(Oc3cccc4c(OC(=O)CCCl)c5c(=O)oc6ccc(C)c7c(=O)oc(c34)c5c67)OC(C)C3OC(c4ccccc4)OC32)C1O` (centres unmarked) [Compound No. 164] showed an LD50 in data set [1] of no less than 40 mg/kg. For the same compound, the response vs control in vivo at 20 mg/kg in data set [2] came out at 198%.
In data set [1], `COC1C(O)C(C)OC(OC2C(Oc3cccc4c(OC(=O)CC[N+](=O)[O-])c5c(=O)oc6ccc(C)c7c(=O)oc(c34)c5c67)OC(C)C3OC(c4ccccc4)OC32)C1O` (centres unmarked) [Compound No. 166] had an LD50 of no less than 30 mg/kg. Also, the response vs control in vivo at 10 mg/kg in data set [2] (dose a: 10 mg/kg × 3, i.v. on days 1, 5 and 9) is 138%.
Take `COC1C(O)C(C)OC(OC2C(Oc3cccc4c(OC(=O)COC(=O)c5ccccc5)c5c(=O)oc6ccc(C)c7c(=O)oc(c34)c5c67)OC(C)C3OC(c4ccccc4)OC32)C1O` (centres unmarked) [Compound No. 167]: the LD50 in data set [1] is no less than 40 mg/kg. Moreover, in data set [2], the response vs control in vivo at 20 mg/kg was found to be 198%.
The matching figures for `COC1C(O)C(C)OC(OC2C(Oc3cccc4c(OC(=O)CCS(C)(=O)=O)c5c(=O)oc6ccc(C)c7c(=O)oc(c34)c5c67)OC(C)C3OC(c4ccccc4)OC32)C1O` (centres unmarked) [Compound No. 168]: no less than 40 mg/kg and 167%.
For the compound `COC1C(O)C(C)OC(OC2C(Oc3cccc4c(OC(=O)CC(C)C)c5c(=O)oc6ccc(C)c7c(=O)oc(c34)c5c67)OC(C)C3OC(c4ccccc4)OC32)C1O` (centres unmarked) [Compound No. 169, 6-O-(3-Methyl-n-Butyryl)-3',4'-O-Benzylidene-Chartreusin], in data set [1], the LD50 is no less than 40 mg/kg. The response vs control in vivo at 20 mg/kg in data set [2] came out at 202%.
In data set [1], `COC1C(O)C(C)OC(OC2C(Oc3cccc4c(OC(=O)C(C)(C)C)c5c(=O)oc6ccc(C)c7c(=O)oc(c34)c5c67)OC(C)C3OC(c4ccccc4)OC32)C1O` (centres unmarked) [Compound No. 170] returned an LD50 of no less than 40 mg/kg. In addition, the response vs control in vivo at 20 mg/kg in data set [2] was found to be 198%.
`COC1C(O)C(C)OC(OC2C(Oc3cccc4c(OC(=O)CC(C)C)c5c(=O)oc6ccc(C)c7c(=O)oc(c34)c5c67)OC(C)C3OC(C)(C)OC32)C1O` (centres unmarked) [Compound No. 171] had an LD50 in data set [1] of no less than 80 mg/kg. For the same compound, in data set [2], the response vs control in vivo at 40 mg/kg is 186% and the response vs control in vivo at 80 mg/kg turned out to be 212%.
Turning to `COC1C(O)C(C)OC(OC2C(Oc3cccc4c(OC(=O)C(Br)C(C)C)c5c(=O)oc6ccc(C)c7c(=O)oc(c34)c5c67)OC(C)C3OC(C)(C)OC32)C1O` (centres unmarked) [Compound No. 172], in data set [1], the LD50 was no less than 80 mg/kg. Also, in data set [2], the response vs control in vivo at 40 mg/kg is 148% and the response vs control in vivo at 80 mg/kg turned out to be 195%.
`C/C=C(\C)C(=O)Oc1c2cccc(OC3OC(C)C4OC(C)(C)OC4C3OC3OC(C)C(O)C(OC)C3O)c2c2oc(=O)c3c(C)ccc4oc(=O)c1c2c43` (centres unmarked) [Compound No. 173] showed a median lethal dose (LD50) in data set [1] of no less than 80 mg/kg. For the same compound, in data set [2], the response vs control in vivo at 40 mg/kg is 152% and the response vs control in vivo at 80 mg/kg stood at 192%.
`COC1C(O)C(C)OC(OC2C(Oc3cccc4c(OC(=O)CSc5ccccc5)c5c(=O)oc6ccc(C)c7c(=O)oc(c34)c5c67)OC(C)C3OC(C)(C)OC32)C1O` (centres unmarked) [Compound No. 174]: in data set [1], the LD50 is no less than 80 mg/kg. Moreover, in data set [2], the response vs control in vivo at 40 mg/kg was 148% and the response vs control in vivo at 80 mg/kg is 198%.
For the compound `C=CCCC(=O)Oc1c2cccc(OC3OC(C)C4OC(C)(C)OC4C3OC3OC(C)C(O)C(OC)C3O)c2c2oc(=O)c3c(C)ccc4oc(=O)c1c2c43` (centres unmarked) [Compound No. 175], in data set [1], the LD50 was no less than 80 mg/kg. Further, in data set [2], the response vs control in vivo at 40 mg/kg came out at 145% and the response vs control in vivo at 80 mg/kg was 208%.
The matching figures for `CCOCCC(=O)Oc1c2cccc(OC3OC(C)C4OC(C)(C)OC4C3OC3OC(C)C(O)C(OC)C3O)c2c2oc(=O)c3c(C)ccc4oc(=O)c1c2c43` (centres unmarked) [Compound No. 176]: no less than 80 mg/kg, 155% and 208%.
The like results for `CO[C@H]1[C@@H](O)[C@@H](C)O[C@H](O[C@H]2[C@H](Oc3cccc4c(OC(=O)C5CC5)c5c(=O)oc6ccc(C)c7c(=O)oc(c34)c5c67)O[C@H](C)[C@@H]3OC(C)(C)O[C@@H]32)[C@@H]1O` [Compound No. 177] were, in that order, no less than 80 mg/kg, 153% and 208%.
